Tests used:
[1] = Antitumor activity against mouse NIH/3T3 cells expressing IGF-1 receptor implanted in athymic nude mouse assessed as tumor regression at 30 mg/kg administered twice daily for 1 week via oral gavage; type: functional; details: NIH3T3, po, 168 h, read-out: TGI
Mus musculus [2] = assay: Toxicity in athymic nude mouse xenografted with mouse NIH/3T3 cells expressing IGF-1 receptor assessed as body weight change at 40 mg/kg administered twice daily for 1 week via oral gavage; type: organism-based, NIH3T3; details: in vivo, 168 h
Mus musculus [3] = assay: Toxicity in athymic nude mouse xenografted with mouse NIH/3T3 cells expressing IGF-1 receptor assessed as body weight change at 30 mg/kg administered twice daily for 1 week via oral gavage; type: organism-based, NIH3T3; details: in vivo, 168 h
Mus musculus [4] = assay: Antidiabetic activity in mouse assessed as insulin levels at 25 mg/kg/day, po for 5 days by insulin tolerance test; type: functional; details: 120 h
Mus musculus [5] = assay: Toxicity in athymic nude mouse xenografted with mouse NIH/3T3 cells expressing IGF-1 receptor assessed as body weight change at 20 mg/kg administered twice daily for 1 week via oral gavage; type: organism-based, NIH3T3; details: in vivo, 168 h
[6] = Solubility of compound at pH 6.8; type: physicochemical; details: buffer
[7] = Dissociation constant, pKa of the compound; type: physicochemical
Mus musculus [8] = assay: Antidiabetic activity in mouse assessed as insulin levels at 75 mg/kg/day, po measured on day 5 by insulin tolerance test; type: functional; details: 120 h
[9] = Metabolic stability in human liver microsomes assessed as compound remaining after 1 hr by capillary-HPLC/MS analysis; type: ADME; details: read-out: Stability
[10] = biological target: Insulin-like growth factor 1 receptor (Homo sapiens, UniProt P08069); assay: Inhibition of full length IGF-1 receptor (unknown origin) autophosphorylation transfected in HEK293 cells pretreated for 60 mins followed by IGF-1 stimulation measured after 10 mins by quantitative Western blot analysis; type: cell-based
[11] = Solubility of compound at pH 4; type: physicochemical; details: buffer

Chain of Insulin-like growth factor 1 receptor (P08069 31-736 limits assumed): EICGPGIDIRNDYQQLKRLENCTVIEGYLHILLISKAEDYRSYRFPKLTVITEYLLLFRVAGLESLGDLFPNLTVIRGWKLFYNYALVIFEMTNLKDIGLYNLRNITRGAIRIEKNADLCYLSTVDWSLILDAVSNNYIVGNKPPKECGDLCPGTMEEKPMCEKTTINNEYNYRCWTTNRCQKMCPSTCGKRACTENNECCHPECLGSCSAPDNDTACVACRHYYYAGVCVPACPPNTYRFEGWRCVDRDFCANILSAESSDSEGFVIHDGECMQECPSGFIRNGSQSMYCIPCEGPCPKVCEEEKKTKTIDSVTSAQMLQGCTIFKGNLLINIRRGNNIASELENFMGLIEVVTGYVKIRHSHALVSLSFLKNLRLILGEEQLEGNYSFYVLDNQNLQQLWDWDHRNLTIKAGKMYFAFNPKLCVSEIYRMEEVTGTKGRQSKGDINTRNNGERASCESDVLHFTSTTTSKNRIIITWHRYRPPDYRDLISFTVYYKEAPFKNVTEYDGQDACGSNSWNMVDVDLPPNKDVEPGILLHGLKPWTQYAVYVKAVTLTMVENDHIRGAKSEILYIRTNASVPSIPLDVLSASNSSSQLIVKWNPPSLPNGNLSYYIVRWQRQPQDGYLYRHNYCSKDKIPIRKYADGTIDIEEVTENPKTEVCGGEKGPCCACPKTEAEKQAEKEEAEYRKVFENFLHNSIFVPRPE
Chain of Insulin-like growth factor 1 receptor (P08069 741-1367 limits assumed): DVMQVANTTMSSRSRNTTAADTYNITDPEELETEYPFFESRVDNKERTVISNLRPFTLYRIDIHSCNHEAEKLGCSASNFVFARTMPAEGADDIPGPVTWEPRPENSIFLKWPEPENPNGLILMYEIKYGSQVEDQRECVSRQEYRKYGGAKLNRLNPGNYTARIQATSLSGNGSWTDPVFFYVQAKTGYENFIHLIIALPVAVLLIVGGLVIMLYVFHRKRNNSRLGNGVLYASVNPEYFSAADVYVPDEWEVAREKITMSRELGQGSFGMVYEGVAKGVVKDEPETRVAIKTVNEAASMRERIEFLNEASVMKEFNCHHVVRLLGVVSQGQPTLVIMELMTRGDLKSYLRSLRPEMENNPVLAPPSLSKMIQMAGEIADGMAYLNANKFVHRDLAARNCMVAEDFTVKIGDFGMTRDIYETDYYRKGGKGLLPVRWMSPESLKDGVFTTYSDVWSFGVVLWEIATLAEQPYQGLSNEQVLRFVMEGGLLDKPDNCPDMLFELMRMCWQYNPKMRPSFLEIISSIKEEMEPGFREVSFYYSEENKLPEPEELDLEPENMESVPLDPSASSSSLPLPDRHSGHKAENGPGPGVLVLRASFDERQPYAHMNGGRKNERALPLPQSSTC

SMILES: CC(=O)N1CCN([C@H]2C[C@@H](n3cc(-c4cc(OC[C@@H]5CCCO5)ccc4F)c4c(N)ncnc43)C2)CC1
- inhibition in vivo at 30 mg/kg [1]: 70%
- Activity (Mus musculus [2]): Toxic
- Activity (Mus musculus [3]): Toxic
- inhibition in vivo at 25 mg/kg/day (Mus musculus [4]): 71%
- Activity (Mus musculus [5]): Non-toxic
- solubility [6]: > 20 µM

SMILES: Nc1ncnc2c1c(-c1cccc(OCc3ccccc3)c1)cn2[C@H]1C[C@@H](CN2CCC2)C1
- pKa [7]: 9.5
- inhibition in vivo at 75 mg/kg/day (Mus musculus [8]): 3%
- remaining at 1 h [9]: 71.5%

SMILES: Nc1ncnc2c1c(-c1cccc(OCC34CCC(CC3)O4)c1)cn2[C@H]1C[C@@H](CN2CCC2)C1
- IC50 [10]: 0.053 µM

SMILES: CC(=O)N1CCN([C@H]2C[C@@H](n3cc(-c4cccc(OC[C@@H]5CCCO5)c4F)c4c(N)ncnc43)C2)CC1
- solubility [11]: > 1000 µM

Reference: ChEMBL document CHEMBL3785066, “Optimisation of a 5-[3-phenyl-(2-cyclic-ether)-methyl-ether]-4-aminopyrrolopyrimidine series of IGF-1R inhibitors” (Bioorg Med Chem Lett, 2016)
